Data on 19 compounds can be found in patent publication US10336762B2 (priority 2017, dated 2019).

The pEC50 is the negative decadic logarithm of the EC50, by convention in mol/L. Broadly, the pIC50 is the IC50 on a negative log10 scale, so that one unit is a factor of ten.

Molecules are shown by their SMILES. pEC50, pIC50: −log10 of the molar value.

In one assay the test system is TNFα. Nature of the assay: cells. The format is cell-based, human. To be noted: Homo sapiens, Monocyte, LPS-stimulated human monocytes, TNFα content; read-out: EC50 TNF.
In a further assay the target is IRAK4 enzyme (Homo sapiens (Human), UniProt Q9NWZ3). Nature of the assay: biochemical. Particulars: IRAK4 enzyme, TR-FRET (HTRF), 500 μM ATP. Type of assay: biochemical. In general terms: In TR-FRET formats the signal depends on donor and acceptor labels being close together.
Sequence of IRAK4 enzyme (Q9NWZ3 whole entry): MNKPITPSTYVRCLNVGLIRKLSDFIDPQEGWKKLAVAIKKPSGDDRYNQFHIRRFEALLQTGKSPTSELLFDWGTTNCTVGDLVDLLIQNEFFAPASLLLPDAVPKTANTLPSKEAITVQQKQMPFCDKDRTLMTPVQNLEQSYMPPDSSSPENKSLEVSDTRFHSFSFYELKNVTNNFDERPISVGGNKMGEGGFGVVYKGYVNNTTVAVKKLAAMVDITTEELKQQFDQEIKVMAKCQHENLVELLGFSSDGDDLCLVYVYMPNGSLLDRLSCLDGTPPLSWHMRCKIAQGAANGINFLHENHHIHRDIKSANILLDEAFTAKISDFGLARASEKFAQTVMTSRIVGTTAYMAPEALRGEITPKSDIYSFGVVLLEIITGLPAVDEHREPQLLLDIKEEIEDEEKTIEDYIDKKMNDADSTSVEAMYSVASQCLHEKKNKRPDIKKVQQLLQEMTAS

As for `CC(C)Nc1cc(-c2ccc3cc(C#N)cnn23)ncc1C(=O)Nc1cncc(N)c1` [Example 490], the pEC50 with TNFα was 6.66. Further, on IRAK4 enzyme, the pIC50 was 8.15.
Taken in the same sequence, the figures for `CC(=O)Nc1cncc(NC(=O)c2cnc(-c3ccc4cc(C#N)cnn34)cc2NC(C)C)c1` [Example 491, N-(5-acetamidopyridin-3-yl)-6-(3-cyanopyrrolo[1,2-b]pyridazin-7-yl)-4-(isopropylamino) nicotinamide] were 6.66 and 7.72.
In the same order, the values of `CC(=O)NC12CC(Nc3cc(-c4ccc5cc(C#N)cnn45)ncc3C(=O)NC3(C#N)CC3)(C1)C2` [Example 492, 4-((3-acetamido-bicyclo[1.1.1]pentan-1-yl)amino)-N-(1-cyano-cyclopropyl)-6-(3-cyanopyrrolo[1,2-b]pyridazin-7-yl)nicotinamide] are 7.00 and 9.00.
Taken in the same sequence, the figures for `CC(=O)Nc1nc(NC(=O)c2cnc(-c3ccc4cc(C#N)cnn34)cc2NC(C)C)cs1` [Example 493, N-(2-acetamidothiazol-4-yl)-6-(3-cyanopyrrolo[1,2-b]pyridazin-7-yl)-4-(isopropylamino)nicotinamide] were below 5.00 and 7.92.
For `CC(=O)NC12CC(Nc3cc(-c4ccc5cc(C#N)cnn45)ncc3C(=O)NC[C@@H](F)C(C)(C)F)(C1)C2` [Example 494, (R)-4-((3-acetamido-bicyclo[1.1.1]pentan-1-yl)amino)-6-(3-cyano-pyrrolo[1,2-b]pyridazin-7-yl)-N-(2,3-difluoro-3-methylbutyl)nicotinamide], the pEC50 with TNFα was 7.36. In addition, on IRAK4 enzyme, the pIC50 was above 9.00.
In the case of `COC(C)(C)[C@H](F)CNC(=O)c1cnc(-c2ccc3cc(C#N)cnn23)cc1NC12CC(NC(C)=O)(C1)C2` [Example 495, (R)-4-((3-acetamidobicyclo[1.1.1]pentan-1-yl)amino)-6-(3-cyanopyrrolo[1,2-b]pyridazin-7-yl)-N-(2-fluoro-3-methoxy-3-methylbutyl)nicotinamide], the pEC50 in the assay with TNFα is 7.40. Besides, the pIC50 against IRAK4 enzyme is above 9.00.
In the same order, the values of `CC(=O)NC12CC(Nc3cc(-c4ccc5cc(C#N)cnn45)ncc3C(=O)NCC#N)(C1)C2` [Example 496, 4-((3-acetamidobicyclo[1.1.1]pentan-1-yl)amino)-N-(cyanomethyl)-6-(3-cyanopyrrolo[1,2-b]pyridazin-7-yl)nicotinamide] are 7.38 and above 9.00.
For `[2H]C([2H])([2H])NC(=O)c1cnc(-c2ccc3cc(C#N)cnn23)cc1NC12CC(NC(C)=O)(C1)C2` [Example 497, 4-((3-acetamidobicyclo[1.1.1]pentan-1-yl)amino)-6-(3-cyanopyrrolo[1,2-b]pyridazin-7-yl)-N-(methyl-d3)nicotinamide], the pEC50 with TNFα is 7.26. Also, on IRAK4 enzyme, the pIC50 is 9.00.
Taken in the same sequence, the figures for `CNC(=O)c1cnc(-c2ccc3cc(C#N)cnn23)cc1NC12CC(NC(C)=O)(C1)C2` [Example 498, 4-((3-acetamidobicyclo[1.1.1]pentan-1-yl)amino)-6-(3-cyanopyrrolo[1,2-b]pyridazin-7-yl)-N-methyl-nicotinamide] were 7.37 and 9.00.
Taken in the same sequence, the figures for `CC(=O)NC12CCC(Nc3cc(-c4ccc5cc(C#N)cnn45)ncc3C(=O)NC[C@@H](F)C(C)(C)O)(CC1)C2` [Example 499, (R)-4-((4-acetamidobicyclo[2.2.1]heptan-1-yl)amino)-6-(3-cyanopyrrolo[1,2-b]pyridazin-7-yl)-N-(2-fluoro-3-hydroxy-3-methylbutyl)nicotinamide] were 7.70 and 9.00.
On to `COC(=O)NC12CCC(Nc3cc(-c4ccc5cc(C#N)cnn45)ncc3C(=O)NC[C@@H](F)C(C)(C)O)(CC1)C2` [Example 500, (R)-methyl (4-((2-(3-cyano-pyrrolo[1,2-b]pyridazin-7-yl)-5-((2-fluoro-3-hydroxy-3-methylbutyl)carbamoyl)pyridin-4-yl)amino)bicyclo[2.2.1]heptan-1-yl)carbamate], for which, in the assay with TNFα, the pEC50 was 7.89. The compound also showed a pIC50 against IRAK4 enzyme of 9.00.
In the same order, the values of `CC(=O)O[C@@H]1CCC[C@H](Nc2cc(-c3ccc4cc(C#N)cnn34)ncc2C(=O)NC[C@@H](F)C(C)(C)O)C1` [Example 501, (1R,3S)-3-((2-(3-cyanopyrrolo[1,2-b]pyridazin-7-yl)-5-(((R)-2-fluoro-3-hydroxy-3-methylbutyl)carbamoyl)pyridin-4-yl)amino)cyclohexyl acetate] are 7.20 and 8.70.
In the same order, the values of `N#Cc1cnn2c(-c3cc(Nc4cccnc4)c(C(=O)N[C@H]4CC[C@H](NC(=O)C5CC5)CC4)cn3)ccc2c1` [Example 502, 6-(3-cyanopyrrolo[1,2-b]pyridazin-7-yl)-N-((1r,4r)-4-(cyclopropane-carboxamido)cyclohexyl)-4-(pyridin-3-ylamino) nicotinamide] are 7.03 and 9.00.
Taken in the same sequence, the figures for `CC(C)(O)[C@H](F)CNC(=O)c1cnc(-c2ccc3cc(C#N)cnn23)cc1NC12CCC(F)(CC1)CC2` [Example 503, (R)-6-(3-cyanopyrrolo[1,2-b]pyridazin-7-yl)-N-(2-fluoro-3-hydroxy-3-methylbutyl)-4-((4-fluorobicyclo[2.2.2]octan-1-yl)amino)nicotinamide] were 7.34 and 8.70.
`CC(C)(O)[C@H](F)CNC(=O)c1cnc(-c2ccc3cc(C#N)cnn23)cc1N[C@@]12CC[C@@H](C1)[C@@H](O)C2` [Example 504, 6-(3-cyanopyrrolo[1,2-b]pyridazin-7-yl)-N-((R)-2-fluoro-3-hydroxy-3-methylbutyl)-4-(((1S,3S,4S)-3-hydroxybicyclo[2.2.1]heptan-1-yl)amino) nicotinamide]: the pEC50 in the assay on TNFα is 7.85. In addition, the negative-log IC50 (pIC50) against IRAK4 enzyme was above 9.00.
Taken in the same sequence, the figures for `C=CC(=O)N[C@H]1CC[C@H](NC(=O)c2cnc(-c3ccc4cc(C#N)cnn34)cc2NC2CCCC(O)C2)CC1` (stereo partly drawn) [Example 505, N-((1r,4S)-4-acrylamidocyclohexyl)-6-(3-cyanopyrrolo[1,2-b]pyridazin-7-yl)-4-(((1S,3R)-3-hydroxycyclohexyl)amino)nicotinamide] were 6.86 and 9.00.
In the same order, the values of `N#Cc1cnn2c(-c3cc(NC45CCC(O)(CC4)CC5)c(C(=O)NC4CCC(NC(=O)C5CC5)CC4)cn3)ccc2c1` (centres unmarked) [Example 506, 6-(3-cyanopyrrolo[1,2-b]pyridazin-7-yl)-N-((1r,4r)-4-(cyclopropane-carboxamido)cyclohexyl)-4-((4-hydroxybicyclo[2.2.2]octan-1-yl)amino) nicotinamide] are 7.30 and above 9.00.
In the same order, the values of `COC(=O)NC12CC(Nc3cc(-c4ccc5cc(C#N)cnn45)ncc3C(=O)NC[C@@H](F)C(C)(C)O)(C1)C2` [Example 507, (R)-methyl (3-((2-(3-cyanopyrrolo[1,2-b]pyridazin-7-yl)-5-((2-fluoro-3-hydroxy-3-methylbutyl)carbamoyl)pyridin-4-yl)amino)bicyclo[1.1.1]pentan-1-yl)carbamate] are 7.57 and above 9.00.
In the case of `CC(=O)NC12CC(Nc3cc(-c4ccc5cc(C#N)cnn45)ncc3C(=O)NC[C@@H](F)C(C)(C)O)(C1)C2` [Example 508, (R)-4-((3-acetamidobicyclo[1.1.1]pentan-1-yl)amino)-6-(3-cyanopyrrolo[1,2-b]pyridazin-7-yl)-N-(2-fluoro-3-hydroxy-3-methyl-butyl)nicotinamide], the pEC50 with TNFα is 7.66. The pIC50 against IRAK4 enzyme is above 9.00.
